Laboratory results as given in publication PMC11887051, “Discovery of ONO-2920632 (VU6011887): A Highly Selective and CNS Penetrant TREK-2 (TWIK-Related K+ Channel 2) Preferring Activator In Vivo Tool Compound” (ACS Chemical Neuroscience, 2025).

Experiments:
mouse TREK-1 = molecular target: T1, mouse TREK-1 (Mus musculus, UniProt P97438); assay: mouse TREK-1 MPC assay; assay type: cell-based; conditions: manual patch clamp
T1 sequence (P97438 1-426): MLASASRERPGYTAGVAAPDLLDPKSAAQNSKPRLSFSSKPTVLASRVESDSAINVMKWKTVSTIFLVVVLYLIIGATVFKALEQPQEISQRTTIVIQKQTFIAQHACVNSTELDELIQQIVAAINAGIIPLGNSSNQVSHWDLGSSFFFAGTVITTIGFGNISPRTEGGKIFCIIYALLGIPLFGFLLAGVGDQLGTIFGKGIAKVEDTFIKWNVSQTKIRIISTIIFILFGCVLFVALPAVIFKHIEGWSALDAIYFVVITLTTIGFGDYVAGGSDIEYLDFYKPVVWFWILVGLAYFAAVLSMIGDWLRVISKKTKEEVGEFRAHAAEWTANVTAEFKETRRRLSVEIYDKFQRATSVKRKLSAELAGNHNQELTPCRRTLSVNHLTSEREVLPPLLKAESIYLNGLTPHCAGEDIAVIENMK

mouse TREK-2 = molecular target: T2, mouse TREK-2 (Mus musculus, UniProt Q8BUW1); assay: mouse TREK-2 MPC assay; assay type: cell-based; conditions: for EC50 / Emax: mouse, manual patch clamp; for TREK-2 preference (mouse MPC): TREK-2 over TREK-1, mouse MPC
T2 sequence (Q8BUW1 1-535): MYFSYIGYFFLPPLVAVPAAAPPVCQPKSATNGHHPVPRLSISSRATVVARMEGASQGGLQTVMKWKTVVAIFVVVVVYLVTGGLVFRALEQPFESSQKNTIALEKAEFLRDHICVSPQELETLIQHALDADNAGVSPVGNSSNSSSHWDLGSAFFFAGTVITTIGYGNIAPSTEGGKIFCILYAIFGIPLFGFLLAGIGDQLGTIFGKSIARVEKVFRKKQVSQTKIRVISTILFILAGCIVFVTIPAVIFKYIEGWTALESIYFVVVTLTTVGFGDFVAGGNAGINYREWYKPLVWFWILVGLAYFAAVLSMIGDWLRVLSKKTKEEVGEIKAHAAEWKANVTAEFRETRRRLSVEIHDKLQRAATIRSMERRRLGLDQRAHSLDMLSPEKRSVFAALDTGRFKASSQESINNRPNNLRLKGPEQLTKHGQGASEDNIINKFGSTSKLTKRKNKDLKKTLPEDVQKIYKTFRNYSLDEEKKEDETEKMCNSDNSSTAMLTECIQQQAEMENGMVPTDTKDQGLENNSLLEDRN

[1] = mouse predicted hepatic clearance; assay type: in vitro ADME
Method: Intrinsic clearance: Human or rat hepatic microsomes (0.5 mg/mL) and 1 µM test compound were incubated in 100 mM potassium phosphate pH 7.4 buffer with 3 mM MgCl2 at 37 °C with constant shaking. After a 5 min preincubation, the reaction was initiated by the addition of NADPH (1 mM). At selected time intervals (0, 3, 7, 15, 25, and 45 min), aliquots were taken and subsequently placed into a 96-well plate containing cold acetonitrile with internal standard (50 ng/mL carbamazepine). Plates were then centrifuged at 3000 rcf (4 °C) for 10 min, and the supernatant was transferred to a separate 96-well plate and diluted 1:1 with water for LC/MS/MS analysis. The in vitro half-life ( 1/2, min, Eq. 1), intrinsic clearance (CLint, mL/min/kg, Eq. 2), and subsequent predicted hepatic clearance (CLhep, mL/min/kg, Eq. 3) was determined employing the […]
where k represents the slope from linear regression analysis of the natural log percent remaining of a test compound as a function of incubation time […]
(2) CLint = in vitroT1/2 x mg microsomes x gram liver x kg body wt ascale-up factors: of 20 (human) or 45 (rat) […]
where Qh (hepatic blood flow, mL/min/kg) is 21 (human) or 70 (rat).
LC/MS/MS Bioanalysis of Samples from Plasma Protein Binding and Intrinsic Clearance […]
Samples were analyzed on a Thermo Electron TSQ Quantum Ultra triple quad mass spectrometer (San Jose, CA) via electrospray ionization (ESI) with two Themo Electron Accella pumps (San Jose, CA), and a Leap Technologies CTC PAL autosampler (Carrboro, NC). Analytes were separated by gradient elution on a dual column system with two Thermo Hypersil Gold (2.1 x 30 mm, 1.9 µm) columns (San Jose, CA) thermostated at 40 °C. HPLC mobile phase A was 0.1% formic acid in water and mobile phase B was 0.1% formic acid in acetonitrile. The gradient started […]
for 0.2 min; returned to 10% B in 0.1 min. The total run time was 1.3 min and the HPLC flow rate was 0.8 mL/min. […]

[2] = rat plasma protein binding (equilibrium dialysis); assay type: in vitro ADME; conditions: pH 7.4, read-out: rat plasma fu
Method: In vitro Plasma protein binding and Brain homogenate binding: Determination of fraction unbound (f u) in plasma was conducted in vitro via equilibrium dialysis using HTDialysis (HTD) membrane plates. The top half of the plate was filled with 100 uL of Dubelco’s Phosphate Buffered Saline, pH 7.4 (DPBS). Compounds were diluted into plasma from each species (5 µM final concentration), which was aliquoted in triplicate to the ‘bottom half’ of the prepared HTD plate wells. The HTD plate was sealed and incubated for 6 hours at 37 °C. Following incubation, each well (both top and bottom halves) were transferred (20 µL) to the corresponding wells of a 96-shallow-well (V-bottom) plate. The daughter plates were then matrix-matched (DPBS side wells received equal volume of plasma, and plasma side wells received equal volume of DPBS), and extraction solution (120 µL; acetonitrile containing 50 nM carbamazepine as IS) was added to all wells of both daughter plates to precipitate protein and extract test article. The plates were then sealed and centrifuged (3500 rcf) for 10 minutes at ambient temperature. Supernatant (60 µL) from each well of the daughter plates was then transferred to the corresponding wells of new daughter plates (96-shallow-well, V bottom) containing water (Milli-Q, 60 µL/well), and the plates were sealed in preparation for LC-MS/MS analysis (see LC-MS/MS analysis method below).
The unbound fraction (f u) was calculated following the equation below, and mean values for each species were calculated from 3 replicates. […]
Fraction unbound for both plasma and brain samples was determined using Equation 4.
Equation 4 Determination of fraction unbound in plasma. […]

Row | EC50 (mouse TREK-1) | Emax (mouse TREK-1) | EC50 (mouse TREK-2) | Emax (mouse TREK-2) | mouse CLhep (predicted hepatic clearance) [1] | fraction unbound at 6 h, 5 µM [2] | SMILES | TREK-2 preference (mouse MPC) (mouse TREK-2)
1 | 1900 nM | 94% | 610 nM | 97% | 33.0 mL/min/kg |  | O=C(NCc1ccc(Br)cc1Cl)c1ccc(-c2ncn[nH]2)cc1 [Compound 14a] | 
2 |  |  |  |  |  | 0.027 | CS(=O)(=O)Nc1ccc(C(=O)NCc2ccc(Cl)cc2Cl)cc1 [Compound 13] | 
3 | 5000 nM | 106% | 150 nM | 105% | 30.5 mL/min/kg | 0.075 | Cc1cc(OC(F)(F)F)ccc1CNC(=O)c1ccc2ncnn2c1 [Compound 19a] | 33 fold

Row | SMILES | EC50 (mouse TREK-1) | Emax (mouse TREK-1) | EC50 (mouse TREK-2) | Emax (mouse TREK-2) | mouse CLhep (predicted hepatic clearance) [1] | fraction unbound at 6 h, 5 µM [2] | TREK-2 preference (mouse MPC) (mouse TREK-2)
4 | O=C(NCc1ccc(OC(F)(F)F)cc1F)c1ccc2ncnn2c1 [Compound 19b] | 2700 nM | 109% | 570 nM | 105% | 17.8 mL/min/kg | 0.075 | 4.7 fold
